System: mRNA expression in cardiovascular tissues
Assay: Affymetrix GeneChip mRNA expression profiling of monkey tissues (iliac vein, pulmonary vein, aorta, carotid artery, heart) after two-week oral-gavage treatment
Conditions: iliac vein
[1] = group average (Vioxx without A60055)
[2] = group avg, Vioxx without A60055

SMILES: O=C(O)Cc1ccccc1Nc1c(Cl)cccc1Cl [Voltaren]
- ACE (209749_s_at) mRNA expression, Avg fold changes vs control [1]: 1.1 fold
- B2M (216231_s_at) mRNA expression, Avg fold changes vs control [1]: 1.2 fold
- BCL6 (215990_s_at) mRNA expression, Avg fold changes vs control [1]: 1.0 fold
- BTN2A2 (205298_s_at) mRNA expression, Avg fold changes vs control [1]: 1.1 fold
- CCR1 (205098_at) mRNA expression, Avg fold changes vs control [1]: 1.3 fold
- CD2 (205831_at) mRNA expression, Avg fold changes vs control [1]: 1.1 fold
- CD48 (204118_at) mRNA expression, Avg fold changes vs control [1]: 1.2 fold
- CD53 (203416_at) mRNA expression, Avg fold changes vs control [1]: 1.4 fold
- CDC2 (210559_s_at) mRNA expression, Avg fold changes vs control [1]: 1.2 fold
- CYBB (203922_s_at) mRNA expression, Avg fold changes vs control [1]: 1.1 fold
- EMP3 (203729_at) mRNA expression, Avg fold changes vs control [1]: 0.8 fold
- FCER1G (204232_at) mRNA expression, Avg fold changes vs control [1]: 1.5 fold
- FCGR2A (203561_at) mRNA expression, Avg fold changes vs control [1]: 1.4 fold
- FCGRT (218831_s_at) mRNA expression, Avg fold changes vs control [1]: 0.9 fold
- FKBP11 (219117_s_at) mRNA expression, Avg fold changes vs control [1]: 0.7 fold
- FKBP11 (219118_at) mRNA expression, Avg fold changes vs control [1]: 0.8 fold
- GP6 (220336_s_at) mRNA expression, Avg fold changes vs control [1]: 1.0 fold
- HCLS1 (202957_at) mRNA expression, Avg fold changes vs control [1]: 1.1 fold
- HEM1 (209734_at) mRNA expression, Avg fold changes vs control [1]: 1.1 fold
- HLA-A (210514_x_at) mRNA expression, Avg fold changes vs control [1]: 1.0 fold
- HLA-A (213932_x_at) mRNA expression, Avg fold changes vs control [1]: 1.1 fold
- HLA-C (211799_x_at) mRNA expression, Avg fold changes vs control [1]: 0.8 fold
- HLA-E (200904_at) mRNA expression, Avg fold changes vs control [1]: 1.2 fold
- HLA-F (221978_at) mRNA expression, Avg fold changes vs control [1]: 1.4 fold
- ICAM1 (202637_s_at) mRNA expression, Avg fold changes vs control [1]: 1.0 fold
- IL13RA1 (210904_s_at) mRNA expression, Avg fold changes vs control [1]: 0.9 fold
- PIK3CD (203879_at) mRNA expression, Avg fold changes vs control [1]: 1.3 fold
- PRKCBP1 (209048_s_at) mRNA expression, Avg fold changes vs control [1]: 1.0 fold
- PRKCBP1 (209049_s_at) mRNA expression, Avg fold changes vs control [1]: 1.0 fold
- PTPN7 (204852_s_at) mRNA expression, Avg fold changes vs control [1]: 1.4 fold
- SIGIRR (52940_at) mRNA expression, Avg fold changes vs control [1]: 1.0 fold
- STAT1 (200887_s_at) mRNA expression, Avg fold changes vs control [1]: 1.1 fold
- STAT1 (AFFX-HUMISGF3A/M97935_3_at) mRNA expression, Avg fold changes vs control [1]: 1.0 fold
- STAT3 (208992_s_at) mRNA expression, Avg fold changes vs control [1]: 1.1 fold
- TCIRG1 (204158_s_at) mRNA expression, Avg fold changes vs control [1]: 1.0 fold
- THY1 (213869_x_at) mRNA expression, Avg fold changes vs control [1]: 0.6 fold
- TMPO (209753_s_at) mRNA expression, Avg fold changes vs control [1]: 1.1 fold
- TMSB10 (217733_s_at) mRNA expression, Avg fold changes vs control [1]: 1.2 fold
- TNFRSF21 (218856_at) mRNA expression, Avg fold changes vs control [1]: 1.2 fold
- TRB@ (210915_x_at) mRNA expression, Avg fold changes vs control [1]: 1.0 fold
- TRB@ (213193_x_at) mRNA expression, Avg fold changes vs control [1]: 1.2 fold
- 209813_x_at avg fold change vs control [2]: 1.0 fold
- AIF1 (209901_x_at) avg fold change vs control [2]: 1.2 fold
- AIF1 (213095_x_at) avg fold change vs control [2]: 1.5 fold
- B2M (201891_s_at) avg fold change vs control [2]: 1.4 fold
- BCL3 (204908_s_at) avg fold change vs control [2]: 1.3 fold
- BTN3A1 (207485_x_at) avg fold change vs control [2]: 1.1 fold
- BTN3A3 (38241_at) avg fold change vs control [2]: 1.2 fold
- BTN3A3 (204820_s_at) avg fold change vs control [2]: 1.3 fold
- BTN3A3 (204821_at) avg fold change vs control [2]: 1.5 fold
- C1QA (218232_at) avg fold change vs control [2]: 1.2 fold
- C1QB (202953_at) avg fold change vs control [2]: 1.1 fold
- C1R (212067_s_at) avg fold change vs control [2]: 1.4 fold
- C1S (208747_s_at) avg fold change vs control [2]: 1.7 fold
- C2 (203052_at) avg fold change vs control [2]: 1.2 fold
- C4A (208451_s_at) avg fold change vs control [2]: 2.4 fold
- CASP1 (209970_x_at) avg fold change vs control [2]: 1.5 fold
- CASP1 (211367_s_at) avg fold change vs control [2]: 1.3 fold
- CCL2 (216598_s_at) avg fold change vs control [2]: 9.0 fold
- CCL3 (205114_s_at) avg fold change vs control [2]: 1.4 fold
- CCL5 (1405_i_at) avg fold change vs control [2]: 2.2 fold
- CCL8 (214038_at) avg fold change vs control [2]: 1.8 fold
- CCL18 (209924_at) avg fold change vs control [2]: 1.6 fold
- CCL19 (210072_at) avg fold change vs control [2]: 1.6 fold
- CCNB2 (202705_at) avg fold change vs control [2]: 1.3 fold
- CD3D (213539_at) avg fold change vs control [2]: 1.9 fold
- CD8A (205758_at) avg fold change vs control [2]: 1.4 fold
- CD14 (201743_at) avg fold change vs control [2]: 1.1 fold
- CD74 (209619_at) avg fold change vs control [2]: 1.3 fold
- CLU (208791_at) avg fold change vs control [2]: 1.0 fold
- CMAH (210571_s_at) avg fold change vs control [2]: 1.4 fold
- CTSC (201487_at) avg fold change vs control [2]: 1.4 fold
- CTSK (202450_s_at) avg fold change vs control [2]: 1.3 fold
- CTSS (202902_s_at) avg fold change vs control [2]: 1.3 fold
- CX3CR1 (205898_at) avg fold change vs control [2]: 1.6 fold
- CXCL9 (203915_at) avg fold change vs control [2]: 1.3 fold
- CXCL10 (204533_at) avg fold change vs control [2]: 1.3 fold
- CXCL11 (210163_at) avg fold change vs control [2]: 2.1 fold
- CXCL11 (211122_s_at) avg fold change vs control [2]: 2.0 fold
- CXCL12 (209687_at) avg fold change vs control [2]: 1.3 fold
- CYBA (203028_s_at) avg fold change vs control [2]: 1.0 fold
- CYBB (203923_s_at) avg fold change vs control [2]: 1.2 fold
- CYP1B1 (202436_s_at) avg fold change vs control [2]: 1.3 fold
- CYP3A5 (214234_s_at) avg fold change vs control [2]: 1.2 fold
- CYP11B1 (214630_at) avg fold change vs control [2]: 0.9 fold
- DUSP6 (208893_s_at) avg fold change vs control [2]: 1.1 fold
- ECGF1 (204858_s_at) avg fold change vs control [2]: 1.4 fold
- ECM1 (209365_s_at) avg fold change vs control [2]: 1.1 fold
- F2RL1 (206429_at) avg fold change vs control [2]: 1.5 fold
- F13A1 (203305_at) avg fold change vs control [2]: 1.3 fold
- FCGR1A (214511_x_at) avg fold change vs control [2]: 1.0 fold
- FCGR3A (204006_s_at) avg fold change vs control [2]: 1.5 fold
- G1P2 (205483_s_at) avg fold change vs control [2]: 2.1 fold
- GZMB (210164_at) avg fold change vs control [2]: 1.8 fold
- HCA127 (220040_x_at) avg fold change vs control [2]: 0.5 fold
- HCK (208018_s_at) avg fold change vs control [2]: 1.2 fold
- HFE (210864_x_at) avg fold change vs control [2]: 0.9 fold

Source: patent US9738932B2, “Biomarkers for cardiovascular side-effects induced by cox-2 inhibitory compounds” (FIRALIS SAS, priority 2005, dated 2017)
